Loss of activity and kcat/KM data for 19 compounds are collected here from publication PMC7915765, “Biochemical Characterization, Specificity and Inhibition Studies of HTLV-1, HTLV-2, and HTLV-3 Proteases” (Life, 2021).

For test [1], the target named is T1, HTLV-3 PR (Human T-cell leukemia virus 3, UniProt Q4U0X6). Nature of the test: Inhibition study with HIV-1 PIs, HTLV-3 PR. Type of test: biochemical. On the set-up: made in house; host or cells: E. coli BL21(DE3), pET11a. The following applies: inhibitor 1 µM final, substrate HTLV-3 MA/CA 0.40–0.43 mM, DMSO control = 100%, n = 2. As for the experimental part:
The IB-268 (KTKVL-r-VVQPK) and IB-269 (APQVL-r-PVMHP) reduced peptide bond (-r-)-containing inhibitors, which were synthesized by Dr. Ivo Blaha (Ferring Leciva, Prague, Czech Republic).
The reaction mixtures were prepared to contain 4.8 µL of substrate (in 0.40–0.43 mM final concentration), 0.2 µL of inhibitor, 5 µL of the enzyme, and 10 µL of a 2× incubation buffer. The substrates representing HTLV-2 and HTLV-3 MA/CA cleavage sites were used for HTLV-2 and HTLV-3 PRs, respectively. In the case of HIV-1 PIs, we applied 100 µM inhibitor stocks, while 0.5–100 µM stocks of IB-268 and IB-269 were used for screening. The inhibitors were dissolved in DMSO. Therefore, 0.2 µL of DMSO was added to the control samples.

Test [2] concerns the target T2, HTLV-2 PR (Human T-cell leukemia virus 2, UniProt P03363). Nature of the test: Inhibition study with HIV-1 PIs, HTLV-2 PR. On the set-up: made in house; host or cells: E. coli BL21(DE3). The format is biochemical, human T-cell leukemia virus type 2. The following applies: inhibitor 1 µM final, substrate HTLV-2 MA/CA 0.40–0.43 mM, DMSO control = 100%, n = 2. As for the experimental part:
The inhibitors were dissolved in DMSO.

The target of test [3] is T2, HTLV-2 PR. As to the kind of experiment: Protease activity assay with oligopeptide substrates (RP-HPLC), HTLV-2 PR. Type of test: biochemical, human T-cell leukemia virus type 2. On the set-up: made in house; host or cells: E. coli BL21(DE3). The following applies: pH 5.6, 37 °C. From the text:
(§1) The oligopeptides representing the naturally occurring matrix/capsid (MA/CA), capsid/nucleocapsid (CA/NC), trans-frame protein/protease (TF1/PR), and PR/p1 cleavage sites of HTLV-1, -2, and -3 PRs were used as substrates. The oligopeptide substrates representing the natural sequences of HTLV PRs were ordered from BioBasic, while the oligopeptide substrates representing naturally occurring cleavage sites of various viruses, or the wild-type, the shortened, and the P4, P3, P2, P1, or P1′ variants of HTLV-1 MA/CA cleavage site (KTKVL*VVQPK) were in-house stocks. All peptides were dissolved in distilled water.
(§2) For kinetic measurements, we applied 10 µL 2× incubation buffer (0.5 M K3PO4, 4 M NaCl, 10 v/v% glycerol, 10 mM DTT, pH 5.6), 5 µL of HTLV-1, HTLV-2, or HTLV-3 PR (final concentration of the active enzyme was in 0.1–34.4 nM), and 0.5–5 µL oligopeptide substrate representing HTLV PR natural cleavage sites (0.05–1.10 mM final concentration). The final volume of the reaction mixture was set to 20 µL with distilled water if it was necessary. The reactions were initiated by the addition of the enzyme, were incubated at 37 °C for 0.5–4 h, and stopped by the addition of 180 µL 1 v/v% TFA. For substrates representing natural cleavage sites of retroviruses other than HTLV-1, -2, and -3 PRs (HIV-1, equine infectious anemia virus (EIAV), Rous sarcoma virus (RSV), mouse mammary tumor virus (MMTV), Mason-Pfizer monkey virus (MPMV), and murine leukemia virus (MuLV) and BLV) in a longer incubation time (24 h) was also applied. The cleavage products were separated by using a Nova-Pack C18 RP-HPLC column (3.9 mm × 150 mm, Waters Associates Inc, Milford, MA, USA) on HPLC (Merck-Hitachi LaChrom). Water-acetonitrile gradient (0–100%) was used for separation in the presence of 0.05% TFA at 2 mL/min flow rate. The kinetic parameters were determined by fitting the data—obtained at less than 20% substrate hydrolysis—to the Michaelis–Menten equation. The Gaussian equation was used to determine pH optimum and exponential growth equation for determination of optimal NaCl concentration, while linear regression was applied to plot the dependence of enzyme activity on temperature. Prism8 software (GraphPad Software Inc., San Diego, CA, USA) was used for evaluation. The kcat/KM catalytic constants were calculated based on the active enzyme concentration, which was determined by active site titration using the method described previously.

In test [4] the target is T1, HTLV-3 PR. As to the kind of experiment: Protease activity assay with oligopeptide substrates (RP-HPLC), HTLV-3 PR. The format is biochemical, human T-cell leukemia virus type 3. On the set-up: made in house; host or cells: E. coli BL21(DE3), pET11a. The following applies: pH 5.6, 37 °C.
Source text: as §1, §2

Test [5] relates to HTLV-1 PR. As to the kind of experiment: Protease activity assay with oligopeptide substrates (RP-HPLC), HTLV-1 PR. The conditions noted are these: substrate 0.05–1.10 mM, 2× buffer 0.5 M K3PO4, 4 M NaCl, 10 v/v% glycerol, 10 mM DTT, pH 5.6, 37 °C, 0.5–4 h. Type of test: biochemical, human T-cell leukemia virus type 1.
Source text: as §1, §2

The test system of test [6] is HIV-1 PR. The conditions noted are these: cleavage sites of viruses other than HTLV, retrieved from the literature, ref [28]; cited from earlier work. From the text: (§3) Table 3 Catalytic efficiencies of HTLV PRs on different substrates representing natural cleavage site sequences of viruses other than HTLV. Cleavage sites are labelled by an asterisk within the sequences. Abbreviations: MA (matrix), CA (capsid), NC (nucleocapsid), TF (transframe), RT (reverse-transcriptase), and IN (integrase). | column: kcat/KM (mM^−1 s^−1) / HIV-1 PR ^1

The subject of test [7] is HTLV-1 PR. The following applies: cleavage sites of viruses other than HTLV, retrieved from the literature, ref [28]; cited from earlier work.
Source text: as §3, with “Table 2 Catalytic efficiencies of HTLV PRs on different substrates representing natural cleavage site sequences. Cleavage sites are labelled by asterisks within the sequences. Abbreviations: MA (matrix), CA (capsid), NC (nucleocapsid), and TF1 (trans-frame 1). | column: kcat/KM [mM^−1 s^−1] / HTLV-1 PR || Table” for “Table”, “column: Substrate;” for “column:”, “HTLV-1” for “HIV-1”

[8] abbreviates: natural HTLV cleavage sites, substrate 0.05–1.10 mM, 2× buffer 0.5 M K3PO4, 4 M NaCl, 10 v/v% glycerol, 10 mM DTT, 0.5–4 h.
[9] abbreviates: cleavage sites of viruses other than HTLV, longer incubation time (24 h) also applied.

Read-outs that look alike come from different tables or passages of the source.

T2 sequence (P03363 447-571): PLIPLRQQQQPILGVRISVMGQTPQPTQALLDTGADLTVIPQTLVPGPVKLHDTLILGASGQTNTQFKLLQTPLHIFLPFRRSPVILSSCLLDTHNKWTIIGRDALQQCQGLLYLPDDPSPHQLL
T1 sequence (Q4U0X6 431-553): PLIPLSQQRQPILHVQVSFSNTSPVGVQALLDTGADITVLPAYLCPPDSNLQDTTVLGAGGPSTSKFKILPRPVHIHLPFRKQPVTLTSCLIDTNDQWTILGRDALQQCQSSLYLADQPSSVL

For the compound `O=C1N(Cc2ccc(CO)cc2)[C@H](Cc2ccccc2)[C@H](O)[C@@H](O)[C@@H](Cc2ccccc2)N1Cc1ccc(CO)cc1` [DMP-323], the loss of activity in test [1] and in test [2] was < 50% each time.

Consider `COC(=O)N[C@H](C(=O)N[C@@H](Cc1ccccc1)[C@@H](O)CN(Cc1ccc(-c2ccccn2)cc1)NC(=O)[C@@H](NC(=O)OC)C(C)(C)C)C(C)(C)C` [atazanavir], for which the loss of activity in test [1] and in test [2] was < 50% each time.

`CC(C)(C)NC(=O)[C@@H]1C[C@@H]2CCCC[C@@H]2CN1C[C@@H](O)[C@H](Cc1ccccc1)NC(=O)[C@H](CC(N)=O)NC(=O)c1ccc2ccccc2n1` [saquinavir]: the loss of activity in test [1] and in test [2] was < 50% each time.

As to “ASQCL*PILHP [HTLV-3 MA/CA, oligopeptide substrate ASQCL*PILHP]”, the kcat/KM in test [3] (setting [8]) worked out at 2600 ± 400 M⁻¹ s⁻¹; in test [4] (setting [8]), 19700 ± 4400 M⁻¹ s⁻¹; in test [5], 40900 ± 10400 M⁻¹ s⁻¹.

Consider “KNKIL*MIQPK [HTLV-3 CA/NC, oligopeptide substrate KNKIL*MIQPK]”, for which, in test [5], the specificity constant (kcat/KM) result is listed as “not cleaved”.

In the case of “PHQLL*PIATP [HTLV-2 PR/P1, oligopeptide substrate PHQLL*PIATP]”, the kcat/KM worked out at 92200 ± 41400 M⁻¹ s⁻¹ in test [3] (setting [8]), 7500 ± 2700 M⁻¹ s⁻¹ in test [4] (setting [8]) and 10700 ± 4800 M⁻¹ s⁻¹ in test [5].

Turning to “PRTIL*PVIPL [HTLV-3 TF1/PR, oligopeptide substrate PRTIL*PVIPL]”, the kcat/KM in test [5] is 109800 ± 29300 M⁻¹ s⁻¹.

As to “PSKVL*PVLAP [HTLV-3 PR/P1, oligopeptide substrate PSKVL*PVLAP]”, the values for the kcat/KM in test [3] (setting [8]), in test [4] (setting [8]) and in test [5] were 2100 ± 300 M⁻¹ s⁻¹, 22600 ± 5800 M⁻¹ s⁻¹ and 7000 ± 2600 M⁻¹ s⁻¹, respectively.

Consider “RATVL*TVALH [RSV PR’/RT, oligopeptide substrate RATVL*TVALH]”, for which the kcat/KM was 1900 M⁻¹ s⁻¹ in test [6], “not cleaved” in test [3] (setting [9]), “not cleaved” in test [4] (setting [9]) and 300 M⁻¹ s⁻¹ in test [7].

Turning to “SDLVL*LSAEARR [MMTV MA/PP21, oligopeptide substrate SDLVL*LSAEARR]”, the kcat/KM in test [6] is 6900 M⁻¹ s⁻¹; in test [3] (setting [9]), “not cleaved”; in test [4] (setting [9]) it was “not cleaved”; in test [7], “not cleaved”.

With “SPRTIL*PLIP [HTLV-2 TF1/PR, oligopeptide substrate SPRTIL*PLIP]”, the kcat/KM in test [3] (setting [8]) is 132500 ± 42500 M⁻¹ s⁻¹; in test [4] (setting [8]), 5000 ± 1100 M⁻¹ s⁻¹; in test [5] it was 4900 ± 1100 M⁻¹ s⁻¹.

As for “TATIM*MQRGN [HIV-1 P2/NC, oligopeptide substrate TATIM*MQRGN]”, the kcat/KM in test [6] is 74000 M⁻¹ s⁻¹; in test [3] (setting [9]), “not cleaved”; in test [4] (setting [9]) it was “not cleaved”; in test [7] it was “not cleaved”.

Consider “TFQAY*PLREA [RSV RT/IN, oligopeptide substrate TFQAY*PLREA]”, for which the kcat/KM in test [6] was 180 M⁻¹ s⁻¹; in test [3] (setting [9]) it was “not cleaved”; in test [4] (setting [9]), “not cleaved”; in test [7], “not cleaved”.

As to “TQTSLL*TLDDQ [MuLV NC/PR, oligopeptide substrate TQTSLL*TLDDQ]”, the kcat/KM entry in test [6], in test [3] (setting [9]), in test [4] (setting [9]) and in test [7] was “not cleaved” in each case.

Take “TSQAF*PLRAG [MuLV P12/CA, oligopeptide substrate TSQAF*PLRAG]”: the kcat/KM in test [6] is 8700 M⁻¹ s⁻¹; in test [3] (setting [9]) it was “not cleaved”; in test [4] (setting [9]) it was “not cleaved”; in test [7], “not cleaved”.

With “TSTLL*IENSS [MuLV RT/IN, oligopeptide substrate TSTLL*IENSS]”, the kcat/KM entry in test [6], in test [3] (setting [9]), in test [4] (setting [9]) and in test [7] was “not cleaved” each time.

For “TTQCF*PILHP [HTLV-2 MA/CA, oligopeptide substrate TTQCF*PILHP]”, the kcat/KM in test [3] (setting [8]) was found to be 4300 ± 500 M⁻¹ s⁻¹; in test [4] (setting [8]) it was 37800 ± 20200 M⁻¹ s⁻¹; in test [5] it was 14400 ± 4300 M⁻¹ s⁻¹.

“VSFNF*PQITL [HIV-1 TF/PR, oligopeptide substrate VSFNF*PQITL]”: the kcat/KM is 6900 M⁻¹ s⁻¹ in test [6], “not cleaved” in test [3] (setting [9]), “not cleaved” in test [4] (setting [9]) and “not cleaved” in test [7].

As to “VSQNY*PIVQ [HIV-1 MA/CA, oligopeptide substrate VSQNY*PIVQ]”, the kcat/KM is 45300 M⁻¹ s⁻¹ in test [6], “not cleaved” in test [3] (setting [9]), “not cleaved” in test [4] (setting [9]) and “not cleaved” in test [7].

By kcat/KM is commonly meant the turnover number divided by the Michaelis constant.
